Source: patent US9290464B2 (priority 2010, dated 2016)

Assays:
cytochrome c = experiment: Release of cytochrome c into cytoplasm (western blot) in MPP+-treated cells; assay type: cell-based, human; conditions: MPP+-added neurons; FIG. 17
From the text: In addition, apoptosis is known to be caused by mechanisms of release of cytochrome c from mitochondria and activation of caspase 3 (The New England journal of Medicine, 348:1365-1375 (2003)). To confirm whether or not the stability of the transmembrane potential of mitochondria by the treatment of CBI is associated with anti-apoptosis of neurons, cell extracts were obtained from the groups of cells, and thus the amount of cytochrome c and the activity of caspase 3 in the cell cytoplasm were measured.
SH-SY5Y cells were incubated under the same conditions as described in Example 7, and then washed with PBS. A protease inhibitor cocktail (Roche) and a phosphatase inhibitor cocktail (Roche) were added to a […] buffer (20 mM HEPES, 10 mM KCl, 2 mM MgCl2, 1 mM EDTA), and the SH-SY5Y cells were treated with 100 ul of the resulting solution and then suspended uniformly. The resultant was maintained on ice for 30 minutes, and then centrifuged at 12,000 rpm for 20 minutes. Subsequently, the same amount of the supernatant was loaded onto a SDS-PAGE gel followed by electrophoresis, the gel was transferred onto a nitrocellulose membrane, the membrane was blotted using cytochrome c (Santacruz, sc13156) diluted to 1:2000 by using a well-known method in the art, and the expression of cytochrome c was evaluated using ECL kit (Amersham Pharmacia).

[1] = test system: MAO-B-deficient human neuroblastoma SH-SY5Y cells; experiment: Transmembrane potential of mitochondria (MitoPT kit) in MPP+-treated cells; assay type: cell-based; conditions: 2 mM MPP+, 24 hours, FIG. 16
Protocol: In this embodiment, MAO-B-deficient human neuroblastoma SH-SY5Y cells (Korean Cell Line Bank) were used. The cells were incubated in a DMEM medium in 5% of CO2 at 37° C. for 24 hours. The cultured cells were divided into five groups, 2 mM of 1-methyl-4-phenyl-pyridium (MPP^+) was added to each group, three of the five groups were respectively treated with 1 nM, 10 nM and 50 nM of CBI, one of the other two groups was treated with 10 nM of rasagiline, and the CBI- or rasagiline-treated four groups were further incubated in 5% of CO2 at 37° C. for 24 hours. The group with only MPP^+ added thereto was incubated under the same conditions as describe dabove. Subsequently, according to manufacturer's protocols, the transmembrane potential of mitochondria was determined using MitoPT™ kit (Immunochemistry Technology). The transmembrane potential of mitochondria was confirmed using a fluorescent plate reader (Tecan, Austria). […] Thus, RFU values (red fluorescence value/green fluorescence value) were determined from the results, and the results are shown in FIG. 16.

MPTP-induced mouse = experiment: Number of neurites and spines per neuron in MPTP-induced mouse (confocal microscopy); assay type: in vivo, C57BL/6 mice; conditions: 1 mg/kg oral once a day for 10 days after MPTP
Protocol: To observe whether or not the number of neurites and spines per neuron in the tissues was increased, a coronal slice with a thickness of 200 um containing striatum or substantia nigra was prepared using a vibratome. Each group of mice was sacrificed, and the brain was taken out of each group and then placed in a cold, highly-concentrated sucrose dissection buffer bubbled with carbogen (5% CO2 and 95% O2) (87 mM NaCl, 2.5 mM KCl, 1.25 mM NaH2PO4, 25 mM NaHCO3, 1 mM CaCl2, 3 mM MgCl2, 10 mM dextrose, and 75 mM sucrose). While the vibratome was performed, a slicing chamber was filled with the uniformly carbogenated sucrose dissection buffer. After the slicing process was terminated, all the slices were washed with PBS, and fixed with 4% paraformaldehyde in a PBS solution. The fixed brain slices were placed on a 1.5% agarose (in PBS) block. Images thereof were obtained using a confocal microscope (ZEISS LSM 510 META) by using Zeiss LSM image browser software (Carl Zeiss Microimaging, Germany, version 4.0 SP2).

[2] = test system: MAO-B-deficient human neuroblastoma SH-SY5Y cells; experiment: Apoptosis induced by serum starvation in neuroblastoma cells; assay type: cell-based; conditions: serum-free medium, FIG. 9
Protocol: In this embodiment, MAO-B-deficient human neuroblastoma SH-SY5Y cells (Korean Cell Line Bank) were used. Apoptosis of the human neuroblastoma cells was induced by serum starvation. The MAO-B-deficient human neuroblastoma SH-SY5Y cells cultured in a normal medium were distributed into a 6-well plate at a concentration of 1.8×10^5 cells/well and incubated for 1 day, the medium was exchanged with a serum-free medium containing CBI (0.1, 1 and 10), a serum-free medium containing rasagiline (0.1, 1 and 10), or a serum-free medium containing neither CBI or rasagiline, and the cell was further incubated in 5% CO2 at 37° C. for 48 hours.

GPx = experiment: Activity of GPx in striatum and substantia nigra of mouse; assay type: in vivo, C57BL/6 mice; conditions: 1 mg/kg oral for 8 days, no neurotoxin, FIG. 22
catalase = experiment: Activity of catalase in striatum and substantia nigra of mouse; assay type: in vivo, C57BL/6 mice; conditions: 1 mg/kg oral for 8 days, no neurotoxin, FIG. 22
Protocol: Next day after the last day of administration, striatum and substantia nigra tissues were taken out of each group of mice. Cell extracts were obtained from the cells of the tissues, and thus the activities of the catalase, SOD and GPx were measured.

MPTP-induced monkey = experiment: Parkinson's disease score in MPTP-induced monkey; assay type: in vivo, Macaque monkeys; conditions: 1 mg/kg oral for 4 weeks after MPTP; compared with group given 1 mg/kg rasagiline; FIG. 1
Protocol: Macaque monkeys (n=35, 3 to 4-year-old) were used as an experimental model. The macaque monkeys were divided into three groups, and 0.2 mg/kg of MPTP was administered to each group (once a day, every day, until Parkinson's disease score reaches 8 or for 14 days) via intravenous injection. […] In addition, to confirm the effect of […] as a dopamine agonist, dopamine transporters existing in medial striatum and caudal striatum taken from the MPTP-induced monkey model were subjected to a dopamine transporter binding assay.
The extent of Parkinson's disease was measured by analyzing videotaped behaviors of each group of monkeys, based on four standards: a) range of movement, b) hypokinesia, c) extent of abnormal posture, and d) tremor. A Parkinson's disease score was evaluated by the sum of (4-range of movement)+hypokinesia+extent of abnormal posture+tremor. […] The Parkinson's disease score was measured for 10 minutes every 30 minutes through 2 hours. That is, the maximum value of the highest Parkinson's disease score is 40. Meanwhile, the measurement method performed based on the four standards was as follows, and evaluated scores below represent representative behaviors observed through observation periods: […]

## NC(=O)OCc1cc(-c2ccc(OCc3ccccc3)cc2)no1 [CBI, carbamic acid 3-(4-benzyloxy-phenyl)-isoxazole-5-yl methylester]
Cytochrome c
  amount of cytochrome c in the cytoplasm: decreased
  amount of cytochrome c released from mitochondria compared with same amount of rasagiline: smaller
[1]; 1 nM, 10 nM and 50 nM
  transmembrane potential of mitochondria: stabilized concentration-dependently
[1]; rasagiline 10 nM
  stability effect of the transmembrane potential of mitochondria relative to same concentration of rasagiline: no less than 2 times
MPTP-induced mouse; FIG. 23
  number of neurites: increased
MPTP-induced mouse; FIG. 24
  number of spines: recovered to the level of normal cells
[2]; 10 (unit not given), 48 hours
  higher extent of a decrease in the apoptosis of neurons than with 10 of rasagiline: about 33%
[2]; 48 hours, 0.1, 1 and 10 (unit not given)
  extent of the apoptosis of neurons: decreased
GPx
  increase of the activity of the GPx in substantia nigra: about 28%
catalase
  increase of the activity of the catalase in the striatum: about 13%
MPTP-induced monkey
  extent of Parkinson's disease (Parkinson's disease score): significantly decreased extent of Parkinson's disease
